The values below come from ChEMBL document CHEMBL5236651, “Synthesis and antibacterial activity of novel 2‑fluoro ketolide antibiotics with 11,12‑quinoylalkyl side chains” (2023).

Each structure is given as a SMILES string. In brackets after ≈: the same amount, converted by molar mass.

Holding throughout (type): functional
In assay [1] the test system is Klebsiella pneumoniae. The assay is described as follows: Antibacterial activity against ESBL positive Klebsiella pneumoniae ATCC 700603 assessed as inhibition of bacterial growth by CLSI based micro broth double dilution method.
Assay [2] relates to Klebsiella pneumoniae. The assay is described as follows: Antibacterial activity against ESBL negative Klebsiella pneumoniae 7 assessed as inhibition of bacterial growth by CLSI based micro broth double dilution method.
The test system of assay [3] is Klebsiella pneumoniae. The assay is described as follows: Antibacterial activity against ESBL negative Klebsiella pneumoniae 16-2 assessed as inhibition of bacterial growth by CLSI based micro broth double dilution method.
For assay [4], the system named is Streptococcus pyogenes. In words: Antibacterial activity against erythromycin-sensitive Streptococcus pyogenes ATCC 19615 assessed as inhibition of bacterial growth by CLSI based micro broth double dilution method.
Assay [5] relates to Streptococcus pyogenes. In words: Antibacterial activity against erythromycin-resistant Streptococcus pyogenes 12-1 assessed as inhibition of bacterial growth by CLSI based micro broth double dilution method.
Assay [6] concerns Enterococcus faecalis. The assay is described as follows: Antibacterial activity against vancomycin-sensitive Enterococcus faecalis […] assessed as inhibition of bacterial growth by CLSI based micro broth double dilution method.
In assay [7] the test system is Enterococcus faecalis. The assay is described as follows: Antibacterial activity against vancomycin-sensitive Enterococcus faecalis 16-6 assessed as inhibition of bacterial growth by CLSI based micro broth double dilution method.
For assay [8], the system named is Enterococcus faecalis. In words: Antibacterial activity against vancomycin-resistant Enterococcus faecalis ATCC 51575 assessed as inhibition of bacterial growth by CLSI based micro broth double dilution method.
Assay [9] concerns Enterococcus faecalis. In words: Antibacterial activity against vancomycin-resistant Enterococcus faecalis ATCC 51299 assessed as inhibition of bacterial growth by CLSI based micro broth double dilution method.
For assay [10], the system named is Streptococcus pneumoniae. In words: Antibacterial activity against erythromycin-sensitive Streptococcus pneumoniae ATCC 49619 assessed as inhibition of bacterial growth by CLSI based micro broth double dilution method.
Assay [11] concerns Streptococcus pneumoniae. In words: Antibacterial activity against erythromycin-resistant Streptococcus pneumoniae 12-3 assessed as inhibition of bacterial growth by CLSI based micro broth double dilution method.
Assay [12] deals with Escherichia coli. The assay is described as follows: Antibacterial activity against ESBL-negative Escherichia coli ATCC 25922 assessed as inhibition of bacterial growth by CLSI based micro broth double dilution method.
The test system of assay [13] is Escherichia coli. The assay is described as follows: Antibacterial activity against Escherichia coli 16-7 assessed as inhibition of bacterial growth by CLSI based micro broth double dilution method.
Assay [14] concerns Escherichia coli. In words: Antibacterial activity against ESBL-positive Escherichia coli ATCC 35218 assessed as inhibition of bacterial growth by CLSI based micro broth double dilution method.
Assay [15] has as its system Staphylococcus epidermidis. The assay is described as follows: Antibacterial activity against methicillin-sensitive Staphylococcus epidermidis ATCC 12228 assessed as inhibition of bacterial growth by CLSI based micro broth double dilution method.
For assay [16], the system named is Staphylococcus epidermidis. The assay is described as follows: Antibacterial activity against methicillin-sensitive Staphylococcus epidermidis 16-4 assessed as inhibition of bacterial growth by CLSI based micro broth double dilution method.
The test system of assay [17] is Staphylococcus aureus. The assay is described as follows: Antibacterial activity against methicillin-sensitive Staphylococcus aureus ATCC 29213 assessed as inhibition of bacterial growth by CLSI based micro broth double dilution method.
Assay [18] has as its system Staphylococcus aureus. The assay is described as follows: Antibacterial activity against methicillin-sensitive Staphylococcus aureus 15 assessed as inhibition of bacterial growth by CLSI based micro broth double dilution method.
For assay [19], the system named is Staphylococcus aureus. The assay is described as follows: Antibacterial activity against methicillin-sensitive Staphylococcus aureus 16-1 assessed as inhibition of bacterial growth by CLSI based micro broth double dilution method.
The subject of assay [20] is Pseudomonas aeruginosa. In words: Antibacterial activity against Pseudomonas aeruginosa ATCC 27853 assessed as inhibition of bacterial growth by CLSI based micro broth double dilution method.
Assay [21] deals with Pseudomonas aeruginosa. In words: Antibacterial activity against Pseudomonas aeruginosa PAO1 assessed as inhibition of bacterial growth by CLSI based micro broth double dilution method.
Assay [22] relates to Pseudomonas aeruginosa. The assay is described as follows: Antibacterial activity against Pseudomonas aeruginosa 16-11 assessed as inhibition of bacterial growth by CLSI based micro broth double dilution method.
Assay [23] relates to Streptococcus pyogenes. The assay is described as follows: Potency index, ratio of telithromycin MIC to test compound MIC for antibacterial activity against erythromycin-resistant Streptococcus pyogenes 12-1 assessed as inhibition of bacterial growth by CLSI based micro broth double dilution method.
Assay [24] concerns Streptococcus pneumoniae. In words: Potency index, ratio of telithromycin MIC to test compound MIC for antibacterial activity against erythromycin-resistant Streptococcus pneumoniae 12-3 assessed as inhibition of bacterial growth by CLSI based micro broth double dilution method.

Take `CCCCN(CCCN1C(=O)O[C@]2(C)[C@@H](CC)OC(=O)[C@@](C)(F)C(=O)[C@H](C)[C@@H](O[C@@H]3O[C@H](C)C[C@H](N(C)C)[C@H]3O)[C@@](C)(OC)C[C@@H](C)C(=O)[C@H](C)[C@@H]12)c1ccnc2ccccc12`: the MIC (as a rule, the lowest concentration that inhibits growth of the organism) with Klebsiella pneumoniae [1] is 32 µg/mL (≈ 36.7 µM); with Klebsiella pneumoniae [2], over 32 µg/mL; with Klebsiella pneumoniae [3] it was over 32 µg/mL; in the assay on Streptococcus pyogenes [4], 0.015 µg/mL (≈ 0.0172 µM); in the assay on Streptococcus pyogenes [5] it was 2 µg/mL (≈ 2.3 µM); in the assay with Enterococcus faecalis [6], 0.03 µg/mL (≈ 0.0344 µM). Further, the minimum inhibitory concentration (MIC) with Enterococcus faecalis [7] was 2 µg/mL (≈ 2.3 µM); in the assay on Enterococcus faecalis [8] it was 1 µg/mL (≈ 1.15 µM); in the assay with Enterococcus faecalis [9], 1 µg/mL (≈ 1.15 µM); in the assay on Streptococcus pneumoniae [10], at most 0.016 µg/mL; in the assay on Streptococcus pneumoniae [11], at most 0.016 µg/mL; in the assay with Escherichia coli [12], 32 µg/mL (≈ 36.7 µM). The MIC with Escherichia coli [13] stood at 32 µg/mL (≈ 36.7 µM); with Escherichia coli [14] it was 32 µg/mL (≈ 36.7 µM); in [15], 0.12 µg/mL (≈ 0.138 µM); in assay [16], 0.25 µg/mL (≈ 0.287 µM); with Staphylococcus aureus [17] it was 1 µg/mL (≈ 1.15 µM); in the assay with Staphylococcus aureus [18], 0.06 µg/mL (≈ 0.0689 µM). In addition, the MIC with Staphylococcus aureus [19] stood at 0.12 µg/mL (≈ 0.138 µM); in the assay with Pseudomonas aeruginosa [20], 32 µg/mL (≈ 36.7 µM); in the assay on Pseudomonas aeruginosa [21] it was 16 µg/mL (≈ 18.4 µM); with Pseudomonas aeruginosa [22], 16 µg/mL (≈ 18.4 µM). In addition, the Ratio in the assay with Streptococcus pyogenes [23] is recorded as 32; with Streptococcus pneumoniae [24] it was 4.
For the compound `CC[C@H]1OC(=O)[C@@](C)(F)C(=O)[C@H](C)[C@@H](O[C@@H]2O[C@H](C)C[C@H](N(C)C)[C@H]2O)[C@@](C)(OC)C[C@@H](C)C(=O)[C@H](C)[C@H]2N(CCCN(C(C)=O)c3ccnc4ccccc34)C(=O)O[C@]12C`, the MIC in the assay on Klebsiella pneumoniae [1] was 32 µg/mL (≈ 37.3 µM); with Klebsiella pneumoniae [2], over 32 µg/mL; in the assay with Klebsiella pneumoniae [3] it was over 32 µg/mL; in the assay on Streptococcus pyogenes [4], 0.03 µg/mL (≈ 0.035 µM); with Streptococcus pyogenes [5], 2 µg/mL (≈ 2.33 µM); with Enterococcus faecalis [6] it was 0.06 µg/mL (≈ 0.07 µM). Besides, the MIC was 4 µg/mL (≈ 4.67 µM) in the assay with Enterococcus faecalis [7]; 4 µg/mL (≈ 4.67 µM) in the assay with Enterococcus faecalis [8]; 4 µg/mL (≈ 4.67 µM) in the assay with Enterococcus faecalis [9]; at most 0.016 µg/mL in the assay with Streptococcus pneumoniae [10]; 0.03 µg/mL (≈ 0.035 µM) in the assay with Streptococcus pneumoniae [11]; 32 µg/mL (≈ 37.3 µM) in the assay with Escherichia coli [12]. For the same compound, the MIC stood at 32 µg/mL (≈ 37.3 µM) with Escherichia coli [13]; 32 µg/mL (≈ 37.3 µM) in the assay with Escherichia coli [14]; 0.06 µg/mL (≈ 0.07 µM) in assay [15]; 0.25 µg/mL (≈ 0.292 µM) in assay [16]; 0.12 µg/mL (≈ 0.14 µM) in the assay on Staphylococcus aureus [17]; 0.06 µg/mL (≈ 0.07 µM) with Staphylococcus aureus [18]. The minimum inhibitory concentration (MIC) in the assay with Staphylococcus aureus [19] is 0.06 µg/mL (≈ 0.07 µM); with Pseudomonas aeruginosa [20], over 32 µg/mL; in the assay on Pseudomonas aeruginosa [21], over 32 µg/mL; in the assay with Pseudomonas aeruginosa [22], over 32 µg/mL.
In the case of `CC[C@H]1OC(=O)[C@@](C)(F)C(=O)[C@H](C)[C@@H](O[C@@H]2O[C@H](C)C[C@H](N(C)C)[C@H]2O)[C@@](C)(OC)C[C@@H](C)C(=O)[C@H](C)[C@H]2N(CCCn3ccc(=O)c4ccccc43)C(=O)O[C@]12C`, the minimal inhibitory concentration (MIC) is over 32 µg/mL with Klebsiella pneumoniae [1]; over 32 µg/mL in the assay with Klebsiella pneumoniae [2]; over 32 µg/mL in the assay with Klebsiella pneumoniae [3]; 0.03 µg/mL (≈ 0.0368 µM) with Streptococcus pyogenes [4]; over 32 µg/mL in the assay on Streptococcus pyogenes [5]; 0.06 µg/mL (≈ 0.0735 µM) in the assay with Enterococcus faecalis [6]. For the same compound, the MIC in the assay with Enterococcus faecalis [7] is over 32 µg/mL; in the assay on Enterococcus faecalis [8] it was over 32 µg/mL; in the assay with Enterococcus faecalis [9] it was over 32 µg/mL; with Streptococcus pneumoniae [10], at most 0.016 µg/mL; with Streptococcus pneumoniae [11], 0.25 µg/mL (≈ 0.306 µM); with Escherichia coli [12] it was 16 µg/mL (≈ 19.6 µM). Besides, the MIC with Escherichia coli [13] is over 32 µg/mL; in the assay on Escherichia coli [14], over 32 µg/mL; in assay [15] it was 0.06 µg/mL (≈ 0.0735 µM); in assay [16], 0.25 µg/mL (≈ 0.306 µM); with Staphylococcus aureus [17] it was 0.12 µg/mL (≈ 0.147 µM); with Staphylococcus aureus [18] it was 0.12 µg/mL (≈ 0.147 µM). The MIC is 0.12 µg/mL (≈ 0.147 µM) in the assay with Staphylococcus aureus [19], over 32 µg/mL in the assay with Pseudomonas aeruginosa [20], over 32 µg/mL in the assay on Pseudomonas aeruginosa [21] and over 32 µg/mL in the assay on Pseudomonas aeruginosa [22].
